Earlier results on one compound are cited in article PMC4364341, “NBD delivery improves the disease phenotype of the golden retriever model of Duchenne muscular dystrophy” (Skeletal Muscle, 2014).

The data set relates to GRMD dogs. The note with it: previous GRMD prednisone trial; cited from earlier work. The source says: This functional benefit obtained by NBD in GRMD dogs was consistent with that obtained in the mdx murine model of DMD [13].

Consider `C[C@]12C=CC(=O)C=C1CC[C@@H]1[C@@H]2C(=O)C[C@@]2(C)[C@H]1CC[C@]2(O)C(=O)CO` [prednisone], for which the “Extension force in treated GRMD dogs” value is reported as “increased extension force”.
